Target: T1, Recombinant human mPGES-1 (Homo sapiens, UniProt O14684)
T1 construct: made in house; host or cells: CHO cells
T1 sequence (O14684 1-152): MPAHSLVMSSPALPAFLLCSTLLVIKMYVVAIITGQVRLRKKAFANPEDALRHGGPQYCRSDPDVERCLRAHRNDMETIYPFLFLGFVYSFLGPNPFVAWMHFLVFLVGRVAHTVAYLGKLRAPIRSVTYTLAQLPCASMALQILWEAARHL
Assay: In-vitro mPGES-1 inhibitor screening (inhibition of PGE2 formation from PGH2, HTRF detection)
Type: biochemical
Details: for inhibition at 1 µM: 1 μM test compound, read-out: Percentage inhibition at 1 μM; for inhibition at 1 µM / inhibition at 10 µM: crude microsomal fraction, 15 μM PGH2; for inhibition at 10 µM: 10 μM test compound, read-out: Percentage inhibition at 10 μM; for IC50: class symbol, concentration response curve
Procedure, shortened: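 PGE2 formation measured by HTRF after 1 min reaction with 15 μM PGH2, stopped with stannous chloride (11 mg/ml). Beforehand, compound and crude CHO-expressed human mPGES-1 microsomes (40-60 μg/mL) sat 10 min in phosphate/EDTA buffer with 2.5 mM GSH (0.5% DMSO final). IC50 fitted from concentration-response of % inhibition.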

How did the inhibition at 1 µM turn out when CC(C)(C)C(=O)NCc1ccc(Cl)c(C(=O)Nc2cccc3c(Nc4cccc(C(F)(F)F)c4)ncnc23)c1 [Example-13, 2-Chloro-5-(pivalamidomethyl)-N-(4-((3-(trifluoromethyl)phenyl)amino)quinazolin-8-yl)benzamide] was run?
Its inhibition at 1 µM is 90.2%.

And the inhibition at 10 µM?
The inhibition at 10 µM was 92.2%.

What about the IC50 of the same compound?
Its IC50 is < 50 nM.

Which results are given for O=C(Nc1cccc2c(Nc3cccc(C(F)(F)F)c3)ncnc12)c1c(Cl)ccc(CNC(=O)[C@@H]2CCCO2)c1F [Example-23, (S)—N-(4-Chloro-2-fluoro-3-((4-((3-(trifluoromethyl)phenyl)amino)quinazolin-8-yl)carbamoyl)benzyl)tetrahydrofuran-2-carboxamide]?
inhibition at 1 µM: 95%; inhibition at 10 µM: 94.9%; IC50: < 50 nM

Which results are given for Cc1ccc(CNC(=O)C(C)(C)C)c(C)c1C(=O)Nc1cccc2c(Nc3cccc(C(F)(F)F)c3)nccc12 [Example-3, 2,6-Dimethyl-3-(pivalamidomethyl)-N-(1-((3-(trifluoromethyl)phenyl)amino)isoquinolin-5-yl)benzamide]?
inhibition at 1 µM: 96%; inhibition at 10 µM: 98.1%; IC50: < 50 nM

Which inhibition at 1 µM does the source give for O=C(Nc1cccc2c(Nc3cc(C(F)(F)F)ccc3F)ncnc12)c1c(F)cccc1Cl [Example-34, 2-Chloro-6-fluoro-N-(4-((2-fluoro-5-(trifluoromethyl)phenyl)amino)quinazolin-8-yl)benzamide] here?
The inhibition at 1 µM was 75.4%.

And the inhibition at 10 µM?
Its inhibition at 10 µM is 84%.

What about the IC50 of the same compound?
The IC50 was > 100 nM.

What does the source list for CC(C)C(=O)NCc1ccc(Cl)c(C(=O)Nc2cccc3c(NC(C)(C)C)ncnc23)c1F [Example-70, N-(4-(tert-Butylamino)quinazolin-8-yl)-6-chloro-2-fluoro-3-(isobutyramidomethyl)benzamide]?
inhibition at 1 µM: 100%; inhibition at 10 µM: 98.8%; IC50: < 50 nM

With COc1c(CNC(=O)C(C)(C)C)ccc(Cl)c1C(=O)Nc1cccc2c(Oc3cccc(C(F)(F)F)c3)ncnc12 [Example-49, 6-Chloro-2-methoxy-3-(pivalamidomethyl)-N-(4-(3-(trifluoromethyl)phenoxy)quinazolin-8-yl)benzamide] as the compound, how does the inhibition at 1 µM read?
Its inhibition at 1 µM is 91.9%.

And the inhibition at 10 µM?
Its inhibition at 10 µM is 91%.

And the IC50?
Its IC50 is < 50 nM.

For CC(C)(C)C(=O)NCc1ccc(Cl)c(C(=O)Nc2cccc3c(Nc4cc(C(F)(F)F)ccc4F)ncnc23)c1F [Example-21, 6-Chloro-2-fluoro-N-(4-((2-fluoro-5-(trifluoromethyl)phenyl)amino)quinazolin-8-yl)-3-(pivalamidomethyl)benzamide], which inhibition at 1 µM is on record?
Its inhibition at 1 µM is 97.3%.

What about the inhibition at 10 µM of the same compound?
Its inhibition at 10 µM is 97.2%.

And the IC50?
Its IC50 is < 50 nM.

What does the source list for CC(C)(C)C(=O)NCc1ccc(Cl)c(C(=O)Nc2cccc3c(NC4CCC(F)(F)CC4)ncnc23)c1 [Example-14, 2-Chloro-N-(4-((4,4-difluorocyclohexyl)amino)quinazolin-8-yl)-5-(pivalamidomethyl)benzamide]?
inhibition at 1 µM: 100%; inhibition at 10 µM: 100%; IC50: < 50 nM

Which results are given for CC(C)(C)C(=O)NCc1ccc(Cl)c(C(=O)Nc2cccc3c(Nc4ccc(C(F)(F)F)cc4)nccc23)c1 [Example-45, 2-Chloro-5-(pivalamidomethyl)-N-(1-((4-(trifluoromethyl)phenyl)amino)isoquinolin-5-yl)benzamide]?
inhibition at 1 µM: 99.6%; inhibition at 10 µM: 98.3%; IC50: < 50 nM

How did the inhibition at 1 µM turn out when CC1(C)CCC(Nc2nc(C(F)(F)F)nc3c(NC(=O)c4c(Cl)ccc(CNC(=O)C(C)(C)C)c4F)cccc23)CC1 [Example-32, 6-Chloro-N-(4-((4,4-dimethylcyclohexyl)amino)-2-(trifluoromethyl)quinazolin-8-yl)-2-fluoro-3-(pivalamidomethyl)benzamide] was run?
Its inhibition at 1 µM is 94.5%.

And the inhibition at 10 µM?
Its inhibition at 10 µM is 95.9%.

What about the IC50 of the same compound?
The IC50 was < 50 nM.

For Cc1nc(NC(C)(C)C)c2cccc(NC(=O)c3c(Cl)ccc(CNC(=O)C(C)(C)C)c3F)c2n1 [Example-65, N-(4-(tert-Butylamino)-2-methylquinazolin-8-yl)-6-chloro-2-fluoro-3-(pivalamidomethyl)benzamide], which inhibition at 1 µM is on record?
The inhibition at 1 µM was 94%.

What about the inhibition at 10 µM of the same compound?
The inhibition at 10 µM was 93%.

What about the IC50 of the same compound?
The IC50 was < 50 nM.

How did the inhibition at 1 µM turn out when CC(C)(C)C(=O)NCc1ccc(Cl)c(C(=O)Nc2cccc3c(O[C@H]4CC[C@H](C(F)(F)F)CC4)ncnc23)c1F [Example-27, 6-Chloro-2-fluoro-3-(pivalamidomethyl)-N-(4-(((1r,4r)-4-(trifluoromethyl)cyclohexyl)oxy)quinazolin-8-yl)benzamide] was run?
The inhibition at 1 µM was 94.4%.

What about the inhibition at 10 µM of the same compound?
The inhibition at 10 µM was 93.9%.

What about the IC50 of the same compound?
Its IC50 is < 50 nM.

Which inhibition at 1 µM does the source give for CC(C)(C)C(=O)NCc1ccc(Cl)c(C(=O)Nc2cccc3c(Nc4cccc(C(F)(F)F)c4)nccc23)c1 [Example-4, 2-Chloro-5-(pivalamidomethyl)-N-(1-((3-(trifluoromethyl)phenyl)amino)isoquinolin-5-yl)benzamide] here?
Its inhibition at 1 µM is 98.6%.

And the inhibition at 10 µM?
Its inhibition at 10 µM is 99.8%.

What about the IC50 of the same compound?
The IC50 was < 50 nM.

Which results are given for CC(C)(C)C(=O)NCc1ccc(Cl)c(C(=O)Nc2cccc3c(N[C@H]4CC[C@H](C(F)(F)F)CC4)ncnc23)c1F [Example-37, 6-Chloro-2-fluoro-3-(pivalamidomethyl)-N-(4-(((1r,4r)-4-(trifluoromethyl)cyclohexyl)amino)quinazolin-8-yl)benzamide]?
inhibition at 1 µM: 97.7%; inhibition at 10 µM: 96.3%; IC50: < 50 nM

What does the source list for CC(C)(C)C(=O)NCc1ccc(Cl)c(C(=O)Nc2cccc3c(Oc4cccc(C(F)(F)F)c4)ncnc23)n1 [Example-9, 3-Chloro-6-(pivalamidomethyl)-N-(4-(3-(trifluoromethyl)phenoxy)quinazolin-8-yl)picolinamide]?
inhibition at 1 µM: 99.1%; inhibition at 10 µM: 100%; IC50: < 50 nM

With Cc1nc(NC(C)C)c2cccc(NC(=O)c3c(Cl)ccc(CNC(=O)C(C)(C)C)c3F)c2n1 [Example-57, 6-Chloro-2-fluoro-N-(4-(isopropylamino)-2-methylquinazolin-8-yl)-3-(pivalamidomethyl)benzamide] as the compound, how does the inhibition at 1 µM read?
The inhibition at 1 µM was 74.1%.

And the inhibition at 10 µM?
The inhibition at 10 µM was 96%.

And the IC50?
The IC50 was > 100 nM.

— patent US9006257B2, “Bicyclic compounds as mPGES-1 inhibitors” (Glenmark Pharmaceuticals S.A., priority 2012, dated 2015)
